Data from PMC8044163, “Vitamin D and lumisterol derivatives can act on liver X receptors (LXRs)” (Scientific Reports, 2021).

Tested on: murine dermal fibroblasts
Experiment: RNA-Seq of newborn murine dermal fibroblasts
Type: cell-based, mouse
Settings: 10^−7 M, 24 h
Method: All animal studies followed guidelines outlined by the NIH Guide for the Care and Use of Laboratory Animals and protocols were approved by the Institutional Animal Care and Use Committee at the NIEHS or the UAB. […] Skin samples from newborn C57BL/6 mice were collected at the NIEHS. Dermal fibroblasts were isolated from the skin of newborn mice, 1–2 day old. Briefly, we followed the protocols described previously. The skin was washed in PBS, cut into smaller pieces and incubated in 2.4 U/ml of dispase II (Roche) overnight at 4 °C. The dermis was separated from the epidermis and incubated in 0.1% collagenase (Roche) at 4 °C overnight. […] Single cell suspension was prepared by pipetting and draining through a cell strainer. After centrifugation, cell pellets were suspended in DMEM medium containing 10% charcoal-stripped fetal bovine serum (cFBS), mouse fibroblasts growth factor (FGF) and 1% antibiotic, and inoculated into tissue culture dishes (Midwest Scientific, TPP). Cells, in early passages, from different mice were pooled together to provide representative samples for experiments. Fibroblasts were cultured in Petri dishes (10 cm in diameter) in DMEM and 10% cFBS and triplicate semi-confluent cultures were treated as described.
Triplicate cultures of murine fibroblasts were used for RNA isolation (RNAeasy Micro kit, Qiagen), the RNA samples were combined for each condition and at least 200 ng of RNA for each sample was used to create libraries for RNA sequencing by BGI Americas Corporation Service (Cambridge, MA)[67]. Quality of RNA and its concentration were determined using Agilent 2100.
The raw sequence FASTQ files were aligned to Gencode’s GRCm38 p4 Release M11 genome using STAR version 2.5.4b (parameters used: –outReadsUnmapped Fastx; –outSAMtype BAM SortedByCoordinate; –outSAMattributes All; –outFilterIntronMotifs RemoveNoncanonicalUnannotated)[69]. The abundance of transcripts was calculated from the alignments using Cufflinks version 2.2.1 (parameters used: –G; –L; –library-type fr-firststrand). Samples were merged using default parameters with Cuffmerge[70],[71]. The differential expression was calculated using Cuffdiff’s default parameters. The raw data have been deposited at the NCBI GEO (GSE145818).

C=C1CCC(O)CC1=CC=C1CCCC2(C)C1CCC2C(C)(O)CC(O)CC(C)C (centres unmarked) [20,23(OH)2D3]
Adh7 expression level: 1.158
Adh7 log2(fold_change) vs control: 2.167
Aqp11 expression level: 0.9828
Aqp11 log2(fold_change) vs control: 2.131
Arid3b expression level: 0.2183
Arid3b log2(fold_change) vs control: -3.968
Bicd1 expression level: 0.8132
Bicd1 log2(fold_change) vs control: -1.4
Btc expression level: 0.8829
Btc log2(fold_change) vs control: 1.8593
Car9 expression level: 2.126
Car9 log2(fold_change) vs control: -2.151
Cbs expression level: 0.2841
Cbs log2(fold_change) vs control: -2.782
Ccl4 expression level: 0.1702
Ccl4 log2(fold_change) vs control: -2.322
Cd68 expression level: 3.478
Cd68 log2(fold_change) vs control: 1.602
Cd200 expression level: 0.493
Cd200 log2(fold_change) vs control: -1.526
Cherp expression level: 31.4407
Cherp log2(fold_change) vs control: -2.561
Clec2g expression level: 0
Clec2g log2(fold_change) vs control: -inf
Cnnm4 expression level: 3.148
Cnnm4 log2(fold_change) vs control: -4.001
Cox15 expression level: 16.947
Cox15 log2(fold_change) vs control: 1.531
Cpa2 expression level: 0.3137
Cpa2 log2(fold_change) vs control: -2.329
Ctrl expression level: 0.115
Ctrl log2(fold_change) vs control: -3.153
Dcun1d1 expression level: 4.486
Dcun1d1 log2(fold_change) vs control: -1.564
Defb42 expression level: 0.09112
Defb42 log2(fold_change) vs control: -3.331
Dtx1 expression level: 0.6816
Dtx1 log2(fold_change) vs control: -1.292
Ehf expression level: 0.1594
Ehf log2(fold_change) vs control: -2.391
Ercc2 expression level: 13.0262
Ercc2 log2(fold_change) vs control: -3.709
Erh expression level: 2.145
Erh log2(fold_change) vs control: -1.557
Fmnl1 expression level: 0.08875
Fmnl1 log2(fold_change) vs control: -3.4
Gys2 expression level: 0
Gys2 log2(fold_change) vs control: -inf
Hist1h2ab expression level: 1.7305
Hist1h2ab log2(fold_change) vs control: 2.585
Hist1h2bg expression level: 0.5684
Hist1h2bg log2(fold_change) vs control: -2
Hist1h2bh expression level: 0
Hist1h2bh log2(fold_change) vs control: -inf
Hist1h4c expression level: 0
Hist1h4c log2(fold_change) vs control: -inf
Isl1 expression level: 0.3239
Isl1 log2(fold_change) vs control: -1.316
Krt19 expression level: 10.8799
Krt19 log2(fold_change) vs control: 1.0982
Larp1b expression level: 3.399
Larp1b log2(fold_change) vs control: -2.948
Lhx6 expression level: 2.278
Lhx6 log2(fold_change) vs control: -2.362
Lsm5 expression level: 1.07
Lsm5 log2(fold_change) vs control: -1.322
M1ap expression level: 1.3491
M1ap log2(fold_change) vs control: 1.119
Med9os expression level: 0.7965
Med9os log2(fold_change) vs control: -1.386
Nckipsd expression level: 11.1997
Nckipsd log2(fold_change) vs control: 1.42
Nr3c2 expression level: 0.3025
Nr3c2 log2(fold_change) vs control: -1.869
Nr6a1 expression level: 0.323
Nr6a1 log2(fold_change) vs control: -2.52
Ntrk3 expression level: 0.007819
Ntrk3 log2(fold_change) vs control: -7.899
Parvg expression level: 0.4359
Parvg log2(fold_change) vs control: -1.7705
Pde4dip expression level: 25.3974
Pde4dip log2(fold_change) vs control: -7.279
Psd4 expression level: 0.1525
Psd4 log2(fold_change) vs control: -3.368
Ptpa expression level: 177.146
Ptpa log2(fold_change) vs control: 1.413
Ptpn6 expression level: 0.3394
Ptpn6 log2(fold_change) vs control: -5.148
Rnu3a expression level: 0
Rnu3a log2(fold_change) vs control: -inf
Rpph1 expression level: 0.6606
Rpph1 log2(fold_change) vs control: -1
Rsad1 expression level: 1.045
Rsad1 log2(fold_change) vs control: -1.592
Saa1 expression level: 0
Saa1 log2(fold_change) vs control: -inf
Samd12 expression level: 1.71
Samd12 log2(fold_change) vs control: -1.081
Scn8a expression level: 0.1177
Scn8a log2(fold_change) vs control: -2.776
Sgca expression level: 0.3824
Sgca log2(fold_change) vs control: -1.697
Slc15a4 expression level: 15.7859
Slc15a4 log2(fold_change) vs control: -1.861
Slc16a5 expression level: 0.2329
Slc16a5 log2(fold_change) vs control: -1.992
Snhg9 expression level: 7.505
Snhg9 log2(fold_change) vs control: -1.322
St7 expression level: 25.5959
St7 log2(fold_change) vs control: -1.436
Stmn1 expression level: 6.591
Stmn1 log2(fold_change) vs control: 2.0805
Susd1 expression level: 1.936
Susd1 log2(fold_change) vs control: 1.474
Syt8 expression level: 0.7109
Syt8 log2(fold_change) vs control: -2.1726
Syt12 expression level: 0.9907
Syt12 log2(fold_change) vs control: -2.055
Tldc2 expression level: 0.1921
Tldc2 log2(fold_change) vs control: -2.216
Tnnc2 expression level: 0.313
Tnnc2 log2(fold_change) vs control: -1.361
Unc5c expression level: 0.1434
Unc5c log2(fold_change) vs control: -2.931
Wdr17 expression level: 1.106
Wdr17 log2(fold_change) vs control: -1.028
Zbtb18 expression level: 4.966
Zbtb18 log2(fold_change) vs control: -3.168
Zfp618 expression level: 1.583
Zfp618 log2(fold_change) vs control: -1.597
number of genes downregulated, FC ≥ 2: 540
number of genes upregulated, FC ≥ 2: 437
number of genes solely downregulated (FC ≥ 2): 116 (11%)
number of genes solely upregulated (FC ≥ 2): 193 (12.8%)
